Legend:
Format in all cases: in vivo, rat (Wistar)
[1] = test system: DA-receptor; assay: Contralateral circling in rats with unilateral 6-hydroxy-DA (6-OHDA) lesions; on 6-OHDA Contr. Circle. rats (sc) Duration: test concentration or dose not given here; details: 6-OHDA-lesioned rats; for 6-OHDA Contr. Circle. rats (sc) ED50: doses calculated as the free amine; for 6-OHDA Contr. Circle. rats (sc) Duration: duration given instead of ED50
Protocol: Furthermore, the potency of the drug to induce contralateral circling behaviour in 6-hydroxy-DA-lesioned rats was determined. The specificity of this receptor resembles that of the […] DA receptors mediating motility inhibition.
The experiments were made according to published methods, using rats of the Wistar strain.
Therefore, also the ability of a test compound to induce contralateral circling in rats with unilateral 6-hydroxy-DA lesions was evaluated (loc cit.).

[2] = test system: postsynaptic DA-receptors; assay: Reversal of locomotor depression (hypomotility) in reserpine plus alpha-methyl-p-tyrosine pretreated rats
[3] = test system: DA-autoreceptors; assay: Inhibition of spontaneous locomotor activity (motility inhibition) in rats; details: doses calculated as the free amine

## CCCN(CCC)CC1COc2ccc(OC(=O)C(C)(C)C)cc21 (stereo not drawn) [Lu 24-042, 5-Pivaloyloxy-2,3-dihydro-N,N-dipropyl-3-benzofuranmethylamine]
[1]
  6-OHDA Contr. Circle. rats (sc) ED50: 0.40 µmol/kg

## CCCN(CCC)CC1CCc2ccc(OC(=O)c3ccccc3OC)cc21 (stereo not drawn) [Lu 24-030, 6-(2-methoxybenzoyloxy)-N,N-dipropyl-1-indanmethylamine]
[1]
  6-OHDA Contr. Circle. rats (sc) Duration: 4 h

## CCCN(CCC)CC1CCc2ccc(OC(=O)c3ccccc3F)cc21 (stereo not drawn) [Lu 24-033, 6-(2-fluorbenzoyloxy)-N,N-dipropyl-1-indanmethylamine]
[1]
  6-OHDA Contr. Circle. rats (sc) Duration: 4 h

## CCCN(CCC)CC1CCc2ccc(OC(=O)c3c(F)cccc3F)cc21 (stereo not drawn) [Lu 24-029, 6-(2,6-Difluorbenzoyloxy)-N,N-dipropyl-1-indanmethylamine]
[1]
  6-OHDA Contr. Circle. rats (sc) Duration: 4 h

## CCCN(CCC)CC1COc2ccc(O)cc21 (single isomer, unassigned; (-)) [Lu 24-121, (-)-5-hydroxy-2,3-dihydro-N,N-dipropyl-3-benzofuranmethylamine]
[2]
  Reserpin α-Mt Rev. rats (sc) ED50: 86 µmol/kg
[3]
  Motility Inh. rats (sc) ED50: 5.4 µmol/kg
[1]
  6-OHDA Contr. Circle. rats (sc) ED50: 1.7 µmol/kg

## CCCN(CCc1cccs1)CC1COc2ccc(O)cc21 (stereo not drawn) [Lu 24-155, 5-Hydroxy-2,3-dihydro-N-propyl-N-(2-thienyl-2-ethyl)-3-benzofuranmethylamine]
[2]
  Reserpin α-Mt Rev. rats (sc) ED50: 28 µmol/kg
[3]
  Motility Inh. rats (sc) ED50: 7.0 µmol/kg
[1]
  6-OHDA Contr. Circle. rats (sc) ED50: 1.2 µmol/kg

## CCCN(CCC)CC1CCc2ccc(OC(=O)c3ccccc3C)cc21 (stereo not drawn) [Lu 24-028]
[1]
  6-OHDA Contr. Circle. rats (sc) Duration: 18 h

## CCCN(CCC)CC1CCc2ccc(O)cc21 (single isomer, unassigned; (-)) [Lu 22-049, (-)-N,N-dipropyl-6-hydroxy-1-indanmethylamine]
[2]
  Reserpin α-Mt Rev. rats (sc) ED50: 4.5 µmol/kg
[3]
  Motility Inh. rats (sc) ED50: 0.26 µmol/kg
[1]
  6-OHDA Contr. Circle. rats (sc) ED50: 0.18 µmol/kg

## CCCN(C)CC1COc2ccc(O)cc21 (stereo not drawn) [Lu 24-103, 5-Hydroxy-2,3-dihydro-N-methyl-N-propyl-3-benzofuranmethylamine]
[2]
  Reserpin α-Mt Rev. rats (sc) ED50: 290 µmol/kg
[3]
  Motility Inh. rats (sc) ED50: 4.5 µmol/kg
[1]
  6-OHDA Contr. Circle. rats (sc) ED50: 1.2 µmol/kg

## CCCN(CCc1ccccc1)CC1COc2ccc(O)cc21 (stereo not drawn) [Lu 24-084, 5-Hydroxy-2,3-dihydro-N-(2-phenylethyl)-N-propyl-3-benzofuranmethylamine]
[2]
  Reserpin α-Mt Rev. rats (sc) ED50: 11 µmol/kg
[3]
  Motility Inh. rats (sc) ED50: 1.9 µmol/kg
[1]
  6-OHDA Contr. Circle. rats (sc) ED50: 0.94 µmol/kg

## CN(C)CC1CCc2ccc(O)cc21 (stereo not drawn) [Lu 21-112, N,N-dimethyl-6-hydroxy-1-indanmethylamine]
[2]
  Reserpin α-Mt Rev. rats (sc) ED50: 12 µmol/kg
[3]
  Motility Inh. rats (sc) ED50: 5.7 µmol/kg
[1]
  6-OHDA Contr. Circle. rats (sc) ED50: 0.95 µmol/kg

## CCN(CC)CC1COc2ccc(O)cc21 (stereo not drawn) [Lu 24-088, 5-Hydroxy-2,3-dihydro-N,N-diethyl-3-benzofuranmethylamine]
[2]
  Reserpin α-Mt Rev. rats (sc) % at 5 μmol/kg: 13%
[3]
  Motility Inh. rats (sc) ED50: 1.7 µmol/kg
[1]
  6-OHDA Contr. Circle. rats (sc) ED50: 1.2 µmol/kg

## CCN(CC)CC1CCc2ccc(O)cc21 (single isomer, unassigned; (-)) [Lu 22-105, (-) N,N-diethyl-6-hydroxy-1-indanmethylamine]
[2]
  Reserpin α-Mt Rev. rats (sc) ED50: 120 µmol/kg
[3]
  Motility Inh. rats (sc) ED50: 0.87 µmol/kg
[1]
  6-OHDA Contr. Circle. rats (sc) ED50: 1.2 µmol/kg

## CCCN(CCC)CC1COc2ccc(O)cc21 (single isomer, unassigned; (+)) [Lu 24-122, (+)-5-hydroxy-2,3-dihydro-N,N-dipropyl-3-benzofuranmethylamine]
[3]
  Motility Inh. rats (sc) ED50: 0.81 µmol/kg
[1]
  6-OHDA Contr. Circle. rats (sc) ED50: 0.16 µmol/kg

## CCCN(CCC)CC1COc2ccc(OC(=O)c3ccccc3C)cc21 (stereo not drawn) [Lu 24-074, 5-(2-Methylbenzoyloxy)-2,3-dihydro-N,N-dipropyl-3-benzofuranmethylamine]
[1]
  6-OHDA Contr. Circle. rats (sc) Duration: 15 h

## CCCN(CCC)CC1CSc2ccc(O)cc21 (stereo not drawn) [Lu 24-100, 5-Hydroxy-2,3-dihydroxy-N,N-dipropyl-3-benzothiophenmethylamine]
[2]
  Reserpin α-Mt Rev. rats (sc) ED50: 20 µmol/kg
[3]
  Motility Inh. rats (sc) ED50: 3.0 µmol/kg
[1]
  6-OHDA Contr. Circle. rats (sc) ED50: 4.6 µmol/kg

## CCN(CC)CC1CCc2ccc(O)cc21 (stereo not drawn) [Lu 21-096, N,N-diethyl-6-hydroxy-1-indanmethylamine]
[2]
  Reserpin α-Mt Rev. rats (sc) % at 5 μmol/kg: 50%
[3]
  Motility Inh. rats (sc) ED50: 1.0 µmol/kg
[1]
  6-OHDA Contr. Circle. rats (sc) ED50: 0.19 µmol/kg

## CCCN(CCc1ccccc1)CC1CCc2ccc(O)cc21 (stereo not drawn) [Lu 21-113, 6-Hydroxy-N-propyl-N-(2-phenylethyl)-1-indanmethylamine]
[2]
  Reserpin α-Mt Rev. rats (sc) % at 5 μmol/kg: 63%
[3]
  Motility Inh. rats (sc) ED50: 0.51 µmol/kg
[1]
  6-OHDA Contr. Circle. rats (sc) ED50: 0.12 µmol/kg

## CCN(CC)CC1CCc2ccc(O)cc21 (single isomer, unassigned; (+)) [Lu 22-106, (+) N,N-diethyl-6-hydroxy-1-indanmethylamine]
[2]
  Reserpin α-Mt Rev. rats (sc) ED50: 14 µmol/kg
[3]
  Motility Inh. rats (sc) ED50: 1.1 µmol/kg
[1]
  6-OHDA Contr. Circle. rats (sc) ED50: 0.36 µmol/kg

## CCCN(CCC)CC1COc2ccc(O)cc21 (stereo not drawn) [Lu 23-130, 5-Hydroxy-2,3-dihydro-N,N-dipropyl-3-benzofuranmethylamine]
[2]
  Reserpin α-Mt Rev. rats (sc) ED50: 3.4 µmol/kg
[3]
  Motility Inh. rats (sc) ED50: 0.5 to 2 µmol/kg
[1]
  6-OHDA Contr. Circle. rats (sc) ED50: 0.35 µmol/kg

## CCCN(CCC)CC1COc2ccc(OC(=O)NC(C)C)cc21 (stereo not drawn) [Lu 25-158, 5-isopropylaminocarbonyloxy-2,3-dihydro-N,N-dipropyl-3-benzofuranmethylamine]
[1]
  6-OHDA Contr. Circle. rats (sc) Duration: 4 h

## CCCCN(CCCC)CC1CCc2ccc(O)cc21 (stereo not drawn) [Lu 22-028, N,N-Dibutyl-6-hydroxy-1-indanmethylamine]
[3]
  Motility Inh. rats (sc) ED50: 13 µmol/kg
[1]
  6-OHDA Contr. Circle. rats (sc) ED50: > 14 µmol/kg

## CCCN(CCC)CC1CCc2ccc(OC)cc21 (stereo not drawn) [Lu 21-097, N,N-dipropyl-6-methoxy-1-indanmethylamine]
[3]
  Motility Inh. rats (sc) ED50: > 14 µmol/kg
[1]
  6-OHDA Contr. Circle. rats (sc) ED50: > 14 µmol/kg

## CCN(CC)CC1CCc2ccc(OC(=O)C(C)(C)C)cc21 (stereo not drawn) [Lu 23-020, 6-pivaloyloxy-N,N-diethyl-1-indanmethylamine]
[3]
  Motility Inh. rats (sc) ED50: 0.84 µmol/kg
[1]
  6-OHDA Contr. Circle. rats (sc) ED50: 0.33 µmol/kg

## CCCN(CCC)CC1COc2ccc(OC(=O)c3ccccc3N)cc21 (stereo not drawn) [Lu 25-165, 5-(2-aminobenzoyloxy)-2,3-dihydro-N,N-dipropyl-3-benzofuranmethylamine]
[1]
  6-OHDA Contr. Circle. rats (sc) Duration: > 6 h

## CCCNCC1CCc2ccc(O)cc21 (stereo not drawn) [Lu 21-138, 6-Hydroxy-N-propyl-1-indanmethylamine]
[3]
  Motility Inh. rats (sc) ED50: 19 µmol/kg
[1]
  6-OHDA Contr. Circle. rats (sc) ED50: 10 µmol/kg

## CCCN(CCC)CC1CCc2ccc(OC(=O)c3ccccc3OC(C)=O)cc21 (stereo not drawn) [Lu 24-032, 6-(2-acetyloxybenzoyloxy)-N,N-dipropyl-1-indanmethylamine]
[1]
  6-OHDA Contr. Circle. rats (sc) Duration: 4 h

## CCN(CC)CC1CCc2ccc(OC(=O)Nc3ccc(C(C)C)cc3)cc21 (stereo not drawn) [Lu 25-177, 6-(4-isopropylphenylaminocarbonyloxy)-N,N-diethyl-1-indanmethylamine]
[1]
  6-OHDA Contr. Circle. rats (sc) Duration: > 6 h

## CCCN(CCC)CC1CCc2ccc(OC(=O)c3ccccc3Cl)cc21 (stereo not drawn) [Lu 24-031, 6-(2-chlorobenzoyloxy)-N,N-dipropyl-1-indanmethylamine]
[1]
  6-OHDA Contr. Circle. rats (sc) Duration: 4 h

— patent US4847254A, “CNS affecting 5-oxy-3-aminomethyl-dihydro-benzofurans and benzothiophenes” (H. Lundbeck A/S, priority 1987, dated 1989)
